Values of other authors in US7195882B2, “Monoclonal antibodies specific for buprenorphine and metabolites thereof” (priority 2003, dated 2007).

Conditions: in vivo

For `CO[C@]12CC[C@@]3(C[C@@H]1[C@](C)(O)C(C)(C)C)[C@H]1Cc4ccc(O[C@@H]5O[C@H](C(=O)O)[C@@H](O)[C@H](O)[C@H]5O)c5c4[C@@]3(CCN1CC1CC1)[C@H]2O5` [buprenorphine glucuronide, buprenorphine 3-O-β-D-glucuronide], the appearance in urine is given as 1 to 2 days.
